Experimental findings from patent publication US10993947B2, “Treatment of skin lesions” (PIQUR THERAPEUTICS AG, priority 2016, dated 2021) are described below.

Like-named read-outs stand apart in the source and are kept apart here.

Experiment [1] deals with pPKB S473 in A2058 cells. In words: In-cell Western blot, pPKB S473. The class given is cell-based. The following applies: Homo sapiens, 1 hour treatment.
Description: (§1) Cells are fixed with 4% paraformaldehyde for 30 minutes at room temperature, washed 2 times with 1% BSA in PBS, permeabilized with 0.1% Triton X-100 in PBS/1% BSA for 30 minutes at room temperature and blocked with 5% goat serum in PBS/1% BSA/0.1% Triton X-100 for 30 minutes at room temperature. […] Cells are washed 3 times 5 minutes with PBS/1% BSA/0.1% triton and plate scanned with the Odyssey Infrared Scanning system using both 700 and 800 nm channels. […] To correct for background staining in the data analysis wells are treated only with secondary antibodies.
(§2) For data analysis the mean background signal from channel 700 nm and 800 nm are subtracted from each signal in channel 700 nm and 800 nm, respectively.
(§3) IC50 values of each compound are determined by plotting the normalized pPBK S473 and pS6 S235/S236 signals, respectively, versus the compound concentrations (in logarithmic scale) and then by fitting a sigmoidal dose-response curve with variable slope to the data using GraphPad™ Prism.
The subject of experiment [2] is pS6 S235/S236 in A2058 cells. As to the kind of experiment: In-cell Western blot, pS6 S235/S236. The following applies: Homo sapiens, 1 hour treatment. Type of experiment: cell-based.
Description: as §1, §2, §3
Experiment [3] addresses T1, N-terminally GST-tagged mTOR (Homo sapiens, UniProt P42345).
T1 construct: truncated version: amino acids 1360-2549; purchased Life Technologies PR8683B
In words: In vitro mTOR binding assay (LanthaScreen TR-FRET).
Description: A 10-point 4-fold serial dilution (highest concentration at 10 μmol/L and lowest concentration at 40 μmol/L) of each compound was tested for mTOR binding in duplicate in a 384-well plate. […] After 30 min incubation at RT, time-resolved FRET was measured with a Synergy 4 multi-mode microplate reader (Biotek Instruments) using the following settings: 100 microsecs delay before data collection, 200 microsecs time for data collection, 10 measurements per data point.
IC50 values of each compound were determined by plotting the emission ratio versus the compound concentrations (in logarithmic scale) and then by fitting a sigmoidal dose-response curve with variable slope to the data using GraphPad™ Prism.

The mark [4] stands for this setting: LanthaScreen kinase binding, Tracer 314, read-out: mTOR IC50 (binding).

For orientation: IC50 means the midpoint of a concentration-inhibition curve.

T1 sequence (P42345 1360-2549): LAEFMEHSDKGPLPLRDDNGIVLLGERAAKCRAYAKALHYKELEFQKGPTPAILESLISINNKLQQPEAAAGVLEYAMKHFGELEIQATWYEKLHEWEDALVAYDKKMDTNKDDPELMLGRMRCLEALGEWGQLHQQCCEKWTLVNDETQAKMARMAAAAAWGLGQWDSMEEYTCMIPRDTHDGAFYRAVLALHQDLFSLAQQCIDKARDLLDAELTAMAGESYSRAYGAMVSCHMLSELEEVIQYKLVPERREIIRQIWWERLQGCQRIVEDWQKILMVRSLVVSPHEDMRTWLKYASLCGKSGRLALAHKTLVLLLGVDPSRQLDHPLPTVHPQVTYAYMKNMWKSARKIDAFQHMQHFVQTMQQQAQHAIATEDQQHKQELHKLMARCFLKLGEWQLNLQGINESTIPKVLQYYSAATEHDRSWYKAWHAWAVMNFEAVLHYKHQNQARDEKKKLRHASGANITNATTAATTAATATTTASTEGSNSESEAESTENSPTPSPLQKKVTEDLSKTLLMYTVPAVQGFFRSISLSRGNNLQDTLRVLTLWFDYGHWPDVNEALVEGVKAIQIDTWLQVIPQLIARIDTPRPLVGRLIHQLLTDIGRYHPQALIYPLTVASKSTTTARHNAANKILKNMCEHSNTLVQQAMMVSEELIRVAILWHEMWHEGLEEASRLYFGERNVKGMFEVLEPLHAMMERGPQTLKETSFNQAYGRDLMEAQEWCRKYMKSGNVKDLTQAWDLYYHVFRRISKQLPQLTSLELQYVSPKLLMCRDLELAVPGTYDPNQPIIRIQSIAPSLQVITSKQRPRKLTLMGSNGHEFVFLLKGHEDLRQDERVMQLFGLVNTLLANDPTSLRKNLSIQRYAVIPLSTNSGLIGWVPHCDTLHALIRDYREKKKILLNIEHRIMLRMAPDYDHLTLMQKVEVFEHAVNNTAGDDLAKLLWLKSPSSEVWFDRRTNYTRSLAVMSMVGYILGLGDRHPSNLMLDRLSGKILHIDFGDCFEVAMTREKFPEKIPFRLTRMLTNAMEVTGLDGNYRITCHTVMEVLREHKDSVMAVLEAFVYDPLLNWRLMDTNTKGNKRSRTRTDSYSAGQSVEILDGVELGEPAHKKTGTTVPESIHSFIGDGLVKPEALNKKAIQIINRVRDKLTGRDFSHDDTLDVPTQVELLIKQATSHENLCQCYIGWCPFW

Consider `Nc1cc(C(F)F)c(-c2nc(N3CCOCC3)nc(N3C4COCC3COC4)n2)cn1` [Compound 84, 4-(difluoromethyl)-5-[4-(3,7-dioxa-9-azabicyclo[3.3.1]nonan-9-yl)-6-morpholino-1,3,5-triazin-2-yl]pyridin-2-amine], for which the IC50 in experiment [1] (A2058, 1 h) was 116 nM; in experiment [2] (A2058, 1 h), 146 nM. As to `Nc1ncc(-c2nc(N3CCOCC3)nc(N3C4CCC3COC4)n2)c(C(F)F)n1` [Compound 5, 5-(4-(3-oxa-8-azabicyclo[3.2.1]octan-8-yl)-6-morpholino-1,3,5-triazin-2-yl)-4-(difluoromethyl)pyrimidin-2-amine], the IC50 worked out at 85 nM in experiment [1] (A2058, 1 h) and 135 nM in experiment [2] (A2058, 1 h). Taken in the same sequence, the figures for `C[C@@H]1COCCN1c1nc(-c2cnc(N)cc2C(F)F)nc(N2C3COCC2C3)n1` [Compound 50, 4-(difluoromethyl)-5-[4-[(3R)-3-methylmorpholin-4-yl]-6-(3-oxa-6-azabicyclo[3.1.1]heptan-6-yl)-1,3,5-triazin-2-yl]pyridin-2-amine] were 1560 nM and 407 nM. Taken in the same sequence, the figures for `C[C@H]1COCCN1c1nc(-c2cnc(N)cc2C(F)F)nc(N2CCNCC2)n1` [Compound 14, (S)-4-(difluoromethyl)-5-(4-(3-methylmorpholino)-6-(piperazin-1-yl)-1,3,5-triazin-2-yl)pyridin-2-amine] were 350 nM and 883 nM. In the case of `Nc1cc(C(F)F)c(-c2nc(N3CCOCC3)nc(N3C4CCC3COC4)n2)cn1` [Compound 4, 5-(4-(3-oxa-8-azabicyclo[3.2.1]octan-8-yl)-6-morpholino-1,3,5-triazin-2-yl)-4-(difluoromethyl)pyridin-2-amine], the IC50 in experiment [1] (A2058, 1 h) came to 178 nM; in experiment [2] (A2058, 1 h), 135 nM. `C[C@H]1COCCN1c1nc(-c2cnc(N)nc2C(F)F)nc(N2CCOC[C@@H]2C)n1` [Compound 7]: in experiment [3] (setting [4]), the IC50 was found to be 71 nM. In the case of `C[C@H]1COCCN1c1nc(-c2cnc(N)cc2C(F)F)nc(N2C3CCC2COC3)n1` [Compound 10, 5-(4-(3-oxa-8-azabicyclo[3.2.1]octan-8-yl)-6-((S)-3-methylmorpholino)-1,3,5-triazin-2-yl)-4-(difluoromethyl)pyridin-2-amine], the IC50 is 138 nM in experiment [1] (A2058, 1 h) and 93 nM in experiment [2] (A2058, 1 h). Turning to `Nc1cc(C(F)F)c(-c2nc(N3CCOCC3)nc(N3C4CCCC3COC4)n2)cn1` [Compound 80, 4-(difluoromethyl)-5-[4-morpholino-6-(3-oxa-9-azabicyclo[3.3.1]nonan-9-yl)-1,3,5-triazin-2-yl]pyridin-2-amine], the IC50 was determined as 94 nM in experiment [1] (A2058, 1 h) and 117 nM in experiment [2] (A2058, 1 h).

In the case of `Nc1cc(C(F)(F)F)c(-c2cc(N3CCOCC3)nc(N3CCOCC3)n2)cn1` [reference compound], the IC50 in experiment [1] (A2058, 1 h) was found to be 263 nM; in experiment [2] (A2058, 1 h), 277 nM. As for `CC[C@@H]1COCCN1c1nc(-c2cnc(N)cc2C(F)F)nc(N2CCOC[C@H]2CC)n1` [Compound 54, 5-[4,6-bis[(3R)-3-ethylmorpholin-4-yl]-1,3,5-triazin-2-yl]-4-(difluoromethyl)pyridin-2-amine], the IC50 was 354 nM in experiment [1] (A2058, 1 h) and 209 nM in experiment [2] (A2058, 1 h). `Nc1cc(C(F)F)c(-c2nc(N3C4CCC3COC4)nc(N3C4COCC3COC4)n2)cn1` [Compound 38, 4-(difluoromethyl)-5-[4-(3,7-dioxa-9-azabicyclo[3.3.1]nonan-9-yl)-6-(3-oxa-8-azabicyclo[3.2.1]octan-8-yl)-1,3,5-triazin-2-yl]pyridin-2-amine]: the IC50 is 219 nM in experiment [1] (A2058, 1 h) and 79 nM in experiment [2] (A2058, 1 h). With `CC(C)[C@@H]1COCCN1c1nc(-c2cnc(N)cc2C(F)F)nc(N2CCOC[C@H]2C(C)C)n1` [Compound 56, 5-[4,6-bis[(3R)-3-isopropylmorpholin-4-yl]-1,3,5-triazin-2-yl]-4-(difluoromethyl)pyridin-2-amine], the IC50 was greater than 10000 nM in experiment [1] (A2058, 1 h) and greater than 10000 nM in experiment [2] (A2058, 1 h). As for `CC1(C)COCCN1c1nc(-c2cnc(N)cc2C(F)F)nc(N2CCOC[C@H]2CO)n1` [Compound 68, [(3R)-4-[4-[6-amino-4-(difluoromethyl)-3-pyridyl]-6-(3,3-dimethylmorpholin-4-yl)-1,3,5-triazin-2-yl]morpholin-3-yl]methanol], the IC50 stood at 682 nM in experiment [1] (A2058, 1 h) and 415 nM in experiment [2] (A2058, 1 h). With `C[C@H]1COCCN1c1nc(-c2cnc(N)nc2C(F)F)nc(N2CCNCC2)n1` [Compound 15, (S)-4-(difluoromethyl)-5-(4-(3-methylmorpholino)-6-(piperazin-1-yl)-1,3,5-triazin-2-yl)pyrimidin-2-amine], the IC50 is 49 nM in experiment [1] (A2058, 1 h) and 286 nM in experiment [2] (A2058, 1 h).

As to `C[C@@H]1COCCN1c1nc(-c2cnc(N)cc2C(F)F)nc(N2C[C@@H]3C[C@H]2CO3)n1` [Compound 53, 4-(difluoromethyl)-5-[4-[(3R)-3-methylmorpholin-4-yl]-6-[(1S,4S)-2-oxa-5-azabicyclo[2.2.1]heptan-5-yl]-1,3,5-triazin-2-yl]pyridin-2-amine], the half-inhibitory concentration (IC50) worked out at 1320 nM in experiment [1] (A2058, 1 h) and 612 nM in experiment [2] (A2058, 1 h). As for `C[C@@H]1COCCN1c1nc(-c2cnc(N)cc2C(F)F)nc(N2CC3CC(C2)O3)n1` [Compound 51, 4-(difluoromethyl)-5-[4-[(3R)-3-methylmorpholin-4-yl]-6-(6-oxa-3-azabicyclo[3.1.1]heptan-3-yl)-1,3,5-triazin-2-yl]pyridin-2-amine], the half-maximal inhibitory concentration (IC50) in experiment [1] (A2058, 1 h) turned out to be 875 nM; in experiment [2] (A2058, 1 h), 352 nM.

As for `Nc1cc(C(F)F)c(-c2nc(N3CCOCC34CCC4)nc(N3CCOCC34CCC4)n2)cn1` [Compound 55, 5-[4,6-bis(8-oxa-5-azaspiro[3.5]nonan-5-yl)-1,3,5-triazin-2-yl]-4-(difluoromethyl)pyridin-2-amine], the IC50 was 942 nM in experiment [1] (A2058, 1 h) and 526 nM in experiment [2] (A2058, 1 h). The like results for `COC[C@@H]1COCCN1c1nc(-c2cnc(N)cc2C(F)F)nc(N2CCOCC2(C)C)n1` [Compound 67, 4-(difluoromethyl)-5-[4-(3,3-dimethylmorpholin-4-yl)-6-[(3R)-3-(methoxymethyl)morpholin-4-yl]-1,3,5-triazin-2-yl]pyridin-2-amine] were, in that order, 787 nM and 395 nM. With `Nc1ncc(-c2nc(N3CCOCC3)cc(N3CCOCC3)n2)c(C(F)F)n1` [Compound 19, 4′-(difluoromethyl)-4,6-dimorpholino-[2,5′-bipyrimidin]-2′-amine], the IC50 in experiment [3] (setting [4]) worked out at 158 nM. Regarding `C[C@H]1COCCN1c1nc(-c2cnc(N)cc2C(F)(F)F)nc(N2CCOCC2)n1` [Compound 8 *, 5-[4-[(3S)-3-methylmorpholin-4-yl]-6-morpholino-1,3,5-triazin-2-yl]-4-(trifluoromethyl)pyridin-2-amine], the figures for the half-inhibitory concentration (IC50) in experiment [1] and in experiment [2] were 196 nM and 90 nM, respectively.

`Nc1cc(C(F)F)c(-c2nc(N3C4COCC3COC4)nc(N3C4COCC3COC4)n2)cn1` [Compound 37, 5-[4,6-bis(3,7-dioxa-9-azabicyclo[3.3.1]nonan-9-yl)-1,3,5-triazin-2-yl]-4-(difluoromethyl)pyridin-2-amine] displayed an IC50 in experiment [3] of 49 nM. As to `CC[C@@H]1COCCN1c1nc(-c2cnc(N)cc2C(F)F)nc(N2CCOC[C@H]2C)n1` [Compound 86, 4-(difluoromethyl)-5-[4-[(3R)-3-ethylmorpholin-4-yl]-6-[(3R)-3-methylmorpholin-4-yl]-1,3,5-triazin-2-yl]pyridin-2-amine], the IC50 in experiment [1] (A2058, 1 h) was determined as 231 nM; in experiment [2] (A2058, 1 h) it was 236 nM. Turning to `C[C@H]1COCCN1c1nc(-c2cnc(N)nc2C(F)F)nc(N2C3CCC2COC3)n1` [Compound 11, 5-(4-(3-oxa-8-azabicyclo[3.2.1]octan-8-yl)-6-((S)-3-methylmorpholino)-1,3,5-triazin-2-yl)-4-(difluoromethyl)pyrimidin-2-amine], the IC50 in experiment [1] (A2058, 1 h) was determined as 61 nM; in experiment [2] (A2058, 1 h), 96 nM.

Consider `CC1(C)COCCN1c1nc(-c2cnc(N)cc2C(F)F)nc(N2CCN(C3CC3)CC2)n1` [Compound 70, 5-[4-(4-cyclopropylpiperazin-1-yl)-6-(3,3-dimethylmorpholin-4-yl)-1,3,5-triazin-2-yl]-4-(difluoromethyl)pyridin-2-amine], for which the IC50 was determined as 914 nM in experiment [1] (A2058, 1 h) and 906 nM in experiment [2] (A2058, 1 h). The like results for `CC[C@H]1COCCN1c1nc(-c2cnc(N)cc2C(F)F)nc(N2CCOC[C@H]2C)n1` [Compound 85, 4-(difluoromethyl)-5-[4-[(3S)-3-ethylmorpholin-4-yl]-6-[(3R)-3-methylmorpholin-4-yl]-1,3,5-triazin-2-yl]pyridin-2-amine] were, in that order, 249 nM and 241 nM. The like results for `C[C@@H]1COCCN1c1nc(-c2cnc(N)cc2C(F)F)nc(N2C[C@H]3C[C@@H]2CO3)n1` [Compound 52, 4-(difluoromethyl)-5-[4-[(3R)-3-methylmorpholin-4-yl]-6-[(1R,4R)-2-oxa-5-azabicyclo[2.2.1]heptan-5-yl]-1,3,5-triazin-2-yl]pyridin-2-amine] were, in that order, 1050 nM and 332 nM.

For `Nc1ncc(-c2nc(N3CCOCC3)nc(N3CCOCC3)n2)c(C(F)F)n1` [Compound 2], the IC50 in experiment [3] (setting [4]) worked out at 59 nM. Turning to `C[C@@H]1COCCN1c1nc(-c2cnc(N)cc2C(F)F)nc(N2CCOC[C@H]2CO)n1` [Compound 77, [(3R)-4-[4-[6-amino-4-(difluoromethyl)-3-pyridyl]-6-[(3R)-3-methylmorpholin-4-yl]-1,3,5-triazin-2-yl]morpholin-3-yl]methanol], half-maximal inhibition in experiment [1] (A2058, 1 h) (IC50) required 476 nM. Turning to `C[C@H]1COCCN1c1cc(-c2cnc(N)nc2C(F)F)nc(N2CCOCC2)n1` [Compound 28, (S)-4′-(difluoromethyl)-6-(3-methylmorpholino)-2-morpholino-[4,5′-bipyrimidin]-2′-amine], in experiment [3] (setting [4]), the concentration for half-maximal inhibition (IC50) came to 23 nM.

`COCCN1CCN(c2nc(-c3cnc(N)cc3C(F)F)nc(N3CCOCC3(C)C)n2)CC1` [Compound 71, 4-(difluoromethyl)-5-[4-(3,3-dimethylmorpholin-4-yl)-6-[4-(2-methoxyethyl)piperazin-1-yl]-1,3,5-triazin-2-yl]pyridin-2-amine]: the 50% inhibitory concentration (IC50) in experiment [1] (A2058, 1 h) turned out to be 2340 nM; in experiment [2] (A2058, 1 h), 3140 nM.
